# Data published in patent publication EP4796540A2, “N-SULFONAMIDE NITROGEN-CONTAINING FUSED HETEROCYCLIC COMPOUND, AND APPLICATION THEREOF” (priority 2023, dated 2025).
# “And” between values parts separate entries of the source, which are not always exact repeats. Equal values may be shown once.
# Columns and labels:
# [1] = test system: human gastric cancer NUGC-3 xenograft; assay: In vivo efficacy study in human gastric cancer NUGC-3 xenograft rat model; set-up: species or system B-Rag2/IL2rg KO SD rats; details: QD × 28 days, p.o., rats
# Protocol: 1. Experimental purpose: To test the in vivo anti-tumor activity of compounds in the subcutaneous human gastric cancer NUGC-3 xenograft model in female B-Rag2/IL2rg KO SD rats. 2. Experimental materials: Animals: 7 to 9 weeks old female B-Rag2/IL2rg KO SD rats; Reagents:
# Vehicle: 5% DMSO/10% Solutol HS 15/85% pH 4.65 ± 0.10 acetate buffer;
# Cell culture: NUGC-3 cells were cultured in RPMI-1640 medium containing 10% FBS.
# Molding and grouping: NUGC-3 cells in the exponential growth phase (1 × 10^7) were harvested, resuspended in 0.2 mL of PBS and Matrigel (1:1), and then inoculated subcutaneously into the right flank of B-Rag2/IL2rg KO SD rats to establish a subcutaneous xenograft model. Rats were observed daily for healthy status and tumor growth after cell inoculation. On the 10th day after inoculation, 24 animals were selected, grouped, and the tumor volume of the animals in the group was approximately 199.0 mm^3. The study was divided into 4 groups, with 6 rats in each group, and the administration was performed on the same day (see Table 12).
# 4. Experimental design: Table 12 is the grouping and administration information for the efficacy study. Rats in the G1 group were orally administered vehicle control (5% DMSO/10% Solutol HS 15/85% pH 4.65 ± 0.10 acetate buffer) once a day for a total of 28 days. Rats in the G2 group were orally administered Cpd-2 once a day at a dose of 6.25 mg/kg for a total of 28 days. Rats in the G3 group were orally administered Cpd-2 once a day at a dose of 12.5 mg/kg for a total of 28 days. Rats in the G4 group were orally administered Cpd-2 once a day at a dose of 25 mg/kg for a total of 28 days. Table 12. In vivo efficacy study design of NUGC-3 xenograft rat model
# Experimental observation: The health status and mortality of the animals were monitored daily. Routine checks included the effect of tumor growth and drug treatment on animals' normal behavior such as mobility, food and water consumption, body weight gain/loss, eye/hair matting and any other abnormal effect. The number of deaths and side effects of the animals in the group were recorded based on the number of the animals in each group. Clinical symptoms observed during the trial were recorded in the raw data. Tumor volume calculation formula: Tumor volume (mm^3) = 0.5 × (tumor long diameter × tumor short diameter^2). During the research process, the entire administration process as well as tumor and body weight measurements were conducted in a Laminar Flow Cabinet.
# Data processing: Percentage of tumor growth inhibition TGITV (%): TGITV % = (1 - ΔT/ΔC) × 100%; Wherein ΔC is the tumor volume Ct - C0 for the control group, C0 is the average tumor volume of the control group at the time of grouping, and Ct is the average tumor volume of the control group after treatment; ΔT is the tumor volume Tt - T0 for the treatment group, T0 is the average tumor volume of the treatment group at the time of grouping, and Tt is the average tumor volume of the treatment group after treatment.
# Statistical analysis: Tumor volume and animal body weight results are expressed in Mean ± SEM. Tumor volumes between different groups were statistically compared and analyzed. All statistical analyses were completed in https://d2k.bio/Efficacy/Invivo. The wilcox.test nominal method was used to compare whether there was a significant difference in tumor volume or tumor weight between groups, where p ≥ 0.05 was considered as having no significant difference, p < 0.05 was considered as having a significant difference, and p < 0.01 was considered as having an extremely significant difference.
# [2] = In vivo pharmacokinetic study in rats; details: rat, plasma; SD rats (male), IV 1 mg/kg; read-out: Clint
# Protocol: 1. Experimental purpose: To test the pharmacokinetics of compounds in SD rats. 2. Experimental instrument and materials: Animal: SD rats (male) Instrument: Intravenous injection: 40% HP-β-CD in water; intragastric administration: 0.2% HPC + 0.5% Tween80 in water. 6 male rats. Fasting treatment was performed in the evening before the administration, with free access to water. During the experiment, the rats were allowed to eat and drink freely, and administered by intravenous injection or gavage. After administration, the animal status was observed, and abnormal behaviors were recorded. Blood was collected via jugular vein puncture at 0.0833, 0.25, 1, 2, 4, 8, and 24 hours after intravenous injection; Blood was collected via jugular vein puncture at 0.25, 0.5, 1, 2, 4, 6, 8, and 24 hours after intragastric administration. 50 µL of plasma sample was taken and added with 500 µL of acetonitrile (containing dexamethasone as an internal standard) to precipitate proteins. The mixture was centrifuged at 4°C and 4000 rpm for 20 minutes, and 300 µL of the supernatant was taken and mixed with 300 µL of Watsons aqueous solution in a 96-well plate. […] Unknown samples were calculated by the standard curve. Pharmacokinetic parameters were calculated by the non-compartmental analysis model of WinNonlin 8.2 software and were presented in a report, including Clint, Cmax, AUC, etc. […]
structure (smiles),measurement,setting,value
"[2H]C([2H])([2H])Oc1nc(C(=O)NS(C)(=O)=O)ccc1NCC#Cc1cc2c(N[C@@H]3CCN(C)C[C@@H]3F)cccn2c1CC(F)(F)F [Cpd-2, 5-((3-(8-(((3S,4R)-3-Fluoro-1-methylpiperidin-4-yl)amino)-3-(2,2,2-trifluoroethyl)indolizin-2-yl)prop-2-yn-1-yl)amino)-6-(methoxy-d3)-N-(methylsulfonyl)picolinamide]",TGITV (%) (at 28 days),[1]; 6.25 mg/kg,92.9%
same,Tumor volume (mm^3) (Mean ± SEM) (at 28 days),[1]; 6.25 mg/kg,395.0 mm^3 and 395.0 ± 63.1 mm^3
same,TGITV (%) (at 28 days),[1]; 12.5 mg/kg,102.9%
same,Tumor volume (mm^3) (Mean ± SEM) (at 28 days),[1]; 12.5 mg/kg,119.2 mm^3 and 119.2 ± 10.2 mm^3
same,TGITV (%) (at 28 days),[1]; 25 mg/kg,104.7%
same,Tumor volume (mm^3) (Mean ± SEM) (at 28 days),[1]; 25 mg/kg,70.1 mm^3 and 70.1 ± 14.9 mm^3
same,clearance,[2],3.3 mL/min/kg
